These results are taken from patent US20180214400A1, “THE USE OF KAURANES COMPOUNDS IN THE MANUFACTURE OF MEDICAMENT FOR TREATMENT OF CADIAC HYPERTROPY AND PULMONARY HYPERTENSION” (KEY-PHARMA BIOMEDICAL INC., priority 2015, published 2018).

The subject of series [1] is pulmonary hypertension rats. The series can be described thus: Pressure overload (TAC)-induced pulmonary hypertension, lung histology. The class given is in vivo, wistar rats. Also on record: Mean vascular wall thickness: unit not given here. As to conditions: for Mean vascular wall thickness: 9 weeks TAC. The procedure: Pressure overloaded-induced pulmonary hypertension was induced by transverse aortic constriction in male wistar rats (200±20 g body weight). Sham operated rats served as controls. […] After 9 weeks, animals were sacrificed and lungs were fixed, paraffin-embedded, sectioned, and stained with hematoxylin and eosin. Blinded stereological Analysis of mean wall thickness and vascular muscularization of lung arterial vessels was performed. Collagen I was verified by immune-fluorescent staining and visualized in confocal.

The test system of series [2] is embolic middle cerebral artery occlusion. As to conditions: oral, seven consecutive days starting 2 h or 24 h after occlusion; cited from earlier work.
Series [3] concerns mice exposed to chronic transverse aortic constriction. As to conditions: cited from earlier work.
Series [4] relates to neonatal rat cardiac fibroblasts. In words: TGF-β induced proliferation of cardiac fibroblasts (MTT). The class given is cell-based. As to conditions: cultured neonatal rat cardiac fibroblasts. The source says: This invention disclosed that compound A can prevent TGF-β induced proliferation in cultured neonatal rat cardiac fibroblasts. Furthermore, this invention disclosed that there were a significant increase in cGMP levels in compound A treated cardiac fibroblasts which is related to its anti-hypertrophy and anti-fibrosis roles.
Neonatal rat cardiac fibroblasts were isolated from 1-2-day-old Sprague-Dawley rats as described previously. Briefly, hearts from newborn 1-2-day-old Sprague-Dawley rats were minced on ice, and cells were isolated by trypsin incubation at 37° C. Non-cardiomyocytes were separated from the cardiomyocytes by differential pre-plating, and then cardiomyocytes were removed with fibroblasts seeded in culture dishes. The cells were passaged after 3 days, using a 0.05% trypsin solution. Cells were cultured in DEME/F12 medium with 5% fetal calf serum, and maintained at 37° C., 5% CO2 condition.
Viability of cardiac fibroblast in culture was assessed using the 3-(4,5-dimethylthiazol-2-yl)-2,5-diphenyltetrazolium bromide (MTT) method. The assay measures the ability of an active mitochondrial enzyme to reduce the MTT substrate (yellow to blue) in live cells. Isolated primary cardiac fibroblasts were plated in serum-free conditions on 96-well plates. […] Absorbance was measured at 460 nm.

Series [5] relates to ROS (reactive oxygen species). In words: ROS in cytosol and mitochondria of cardiomyocytes. The class given is cell-based. As to conditions: cardiomyocytes hypertrophy. The source says:
In this invention, we disclosed that compound A could suppress cardiomyocytes hypertrophy by reducing ROS (reactive oxygen species) in either cytosol and mitochondria in addition to the inhibition of PED, while classic PED inhibitor such as sildenafil has no such effects been reported in prior arts. This explains the superiority of compound A over sildenafil in suppressing hypertrophy and other diseases. This invention disclosed a new use of compound A as PED inhibitor with novel mechanism which is different than what been disclosed in prior art.

Series [6] deals with acute ischemia-reperfusion heart injuries. As to conditions: cited from earlier work.
Another series has as its system sarcolemma KATP channel. The series can be described thus: Sarcolemma KATP channel effect. From the text: This invention disclosed exclusively that compound A per se had no effect on either sarcolemma or mitochondrial KATP channel. Instead, compound A is acting only as a sensitizer which render the KATP channel response greater to known KATP channel openers, such as pinacidil and to change of ATP.

For another series, the system named is microRNA21. In words: microRNA21 and fibrosis at penumbra region of ischemic heart. The class given is in vivo. The source says: This effect of compound A has never been reported in prior art.
Series [7] relates to cardiomyocyte from guinea pig. The series can be described thus: Electrophysiology in guinea pig cardiomyocyte after ischemia and reperfusion. It is filed as cell-based. From the text:
This invention also disclosed that in cardiomyocyte from guinea pig, that compound A can reduce elongated QT segment and increased QT variations, further it prevent prolonged action potential, decrease resting potential and suppressed Herg (Ikr) currents as result of ischemia and reperfusion. Compound A can also as an scavenger to reduce ROS (reactive oxygen species). Therefore, it can be used for treatment of abnormal ECG in clinic diagnosed with above or used for diseases or clinic procedures which may involve above mentioned mechanism.

The test system of series [8] is hypertrophy cardiomyocytes. The series can be described thus: Cytosol Ca++ in hypertrophy cardiomyocytes. The class given is cell-based. From the text:
This invention disclosed a novel use of inotropic medicine selectively that is compound A can be used to improve the cardiac function in a deteriorative hypertrophy heart without increase cytosol Ca++ or oxygen consumption. In addition it was not worsening the ECG instead it improve the ECG in hypertrophy heart. This is due to that compound A can reduce cardiomyocytes cytosol Ca++ level but enhance only the peak of Ca++ transient during each contraction in hypertrophy cardiomyocytes. This novel finding makes compound A different from other known traditional inotropic medicine such digitalis and beta agonists such as epinephrine.

For series [9], the system named is cerebral I/R injured rats. In words: Late phase cerebral I/R injury (7 days) in rats. It is filed as in vivo. As to conditions: 7 days after I/R. The procedure: Reactive astrogliosis is a common pathological process in late phase of cerebral I/R injury, which contributes to further neuronal damages. It is also seen in neuronal degenerative disease such as Alzheimer's disease in the present invention, compound A given consecutively for 7 days in cerebral I/R injured rats. […] The therapeutic effects of either single or consecutive 7 treatments with compound A were Analyzed and compared at 7 days after I/R injury.

As to `CCCc1nn(C)c2c(=O)[nH]c(-c3cc(S(=O)(=O)N4CCN(C)CC4)ccc3OCC)nc12` [sildenafil, reference compound], in [1] (70 mg/kg + TAC), the Fully muscularization is on record as 23.80 ± 8.247 %, the Non-muscularization came out at 57.57 ± 7.182 % and the Partially muscularization is given as 18.61 ± 15.09%. Moreover, in series [1] (lung, 70 mg/kg + TAC), the “fluorescent intensity of collagen I” value turned out to be 7.591. Further, in series [1] (pulmonary arterioles inner diameter <100 um, sildenafil), the “Mean vascular wall thickness” value turned out to be 24.10 ± 7.48. Further, the “Mean vascular wall thickness” value in series [1] (pulmonary arterioles inner diameter >100 um, sildenafil) is on record as 14.88 ± 6.83. In [2], the infarct volume entry was “without any effect” and the neurological recovery entry was “significantly enhanced”. Moreover, the “chamber and cardiomyocytes hypertrophy” value in [3] is “suppresses”.

Consider `C[C@@]12CC[C@@H]3[C@@](CC[C@H]4[C@@]3(C)CCC[C@@]4(C)C(=O)O)(CC1=O)C2` [Compound A, (4α,8β,13β)-13-methyl-16-oxo-17-norkauran-18-oic acid], for which the TGF-β induced proliferation result in [4] is listed as “prevent”. In series [5], the “ROS in cytosol and mitochondria” value is given as “reducing”. Further, in series [1] (1 mg/kg + TAC), the Fully muscularization was found to be 10.20 ± 9.787 %, the Non-muscularization is 66.78 ± 5.876 % and the Partially muscularization was found to be 23.00 ± 3.938%. Also, in series [1] (4 mg/kg + TAC), the Fully muscularization is recorded as 1.851 ± 3.207^#& %, the Non-muscularization is recorded as 81.10 ± 16.60 % and the Partially muscularization was found to be 17.04 ± 18.98%. Besides, in series [1] (lung, TAC rats), the “number of non-muscularization vessels” value is given as “increased”; the “production of collagen I” value is “reduced”; the “vascular remodeling in small and medium arteries” value was “prevented”. Moreover, the “fluorescent intensity of collagen I” value in series [1] (lung, 1 mg/kg + TAC) came to 10.75. In [1] (pulmonary arterioles inner diameter <100 um, 1 mg/kg), the “Mean vascular wall thickness” value was 22.96 ± 7.83. In addition, the “Mean vascular wall thickness” value in series [1] (pulmonary arterioles inner diameter <100 um, 4 mg/kg) is reported as 17.60 ± 6.28^##&&. For the same compound, in [1] (pulmonary arterioles inner diameter >100 um, 1 mg/kg), the “Mean vascular wall thickness” value was determined as 16.60 ± 6.00. Further, the “Mean vascular wall thickness” value in [1] (pulmonary arterioles inner diameter >100 um, 4 mg/kg) is 10.67 ± 5.01. The “cardioprotective effect and arrhythmia” value in series [6] was “cardioprotective effect”. The “effect on sarcolemma KATP channel per se” value in the series with sarcolemma KATP channel is reported as “had no effect”. Moreover, in the series with sarcolemma KATP channel (sarcolemma or mitochondrial not distinguished), the “KATP channel response to known openers such as pinacidil and to change of ATP” value is on record as “sensitizer”. Moreover, in the series with microRNA21, the “fibrosis at the same region” value is “significant amelioration”. Further, in the series with microRNA21 (penumbra region of the ischemic heart), the microRNA21 result was “significant reduced”. Further, in series [7], the decrease resting potential entry is reported as “prevent”; the “elongated QT segment and increased QT variations” value is “reduce”; the prolonged action potential entry is given as “prevent”; the “suppressed Herg (Ikr) currents” value is “prevent”. Also, in series [8], the “cardiomyocytes cytosol Ca++ level” value is “reduce” and the “peak of Ca++ transient during each contraction” value was “enhance”. In addition, the “I/R injury, consecutive 7 treatments comparing to single treatment” value in series [9] is recorded as “significantly improved”. For the same compound, the “accumulation of activated astrocytes” value in [9] (consecutive treatments) was “significantly inhibited”. Moreover, in series [9] (given consecutively for 7 days), the infarct volume result was “reduction”; the “neurological behavior and cellular morphology” value is “improvement”; the neuronal survival entry is recorded as “enhancement”.
